The values below come from paper PMC9221411, “Molecular Detection of Venous Thrombosis in Mouse Models Using SPECT/CT” (Biomolecules, 2022).

The experiment concerns the target T1, human thrombi (Homo sapiens, UniProt P02671+P02675+P02679).
T1 construct: Human plasma was allowed to clot for 90 min at 37 °C; from tissue; host or cells: citrated plasma of healthy human volunteers, clotted with CaCl2 and tissue factor
T1 sequence (P02671 36-629 limits assumed): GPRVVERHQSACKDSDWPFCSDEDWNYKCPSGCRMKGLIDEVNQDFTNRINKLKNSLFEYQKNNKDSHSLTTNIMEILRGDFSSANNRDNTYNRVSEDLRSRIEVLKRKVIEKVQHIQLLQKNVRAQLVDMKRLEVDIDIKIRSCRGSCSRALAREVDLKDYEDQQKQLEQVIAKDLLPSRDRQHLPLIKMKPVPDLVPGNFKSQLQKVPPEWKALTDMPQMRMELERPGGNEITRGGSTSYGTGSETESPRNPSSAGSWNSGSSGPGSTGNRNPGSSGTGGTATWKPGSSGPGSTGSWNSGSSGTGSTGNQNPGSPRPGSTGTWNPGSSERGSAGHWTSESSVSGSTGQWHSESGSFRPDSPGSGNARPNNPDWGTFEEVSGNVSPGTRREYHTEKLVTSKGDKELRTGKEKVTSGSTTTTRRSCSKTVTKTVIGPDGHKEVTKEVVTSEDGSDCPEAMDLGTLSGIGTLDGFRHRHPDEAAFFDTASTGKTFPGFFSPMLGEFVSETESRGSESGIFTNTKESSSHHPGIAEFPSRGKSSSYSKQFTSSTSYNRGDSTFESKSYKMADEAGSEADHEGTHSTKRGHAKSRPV
T1 sequence (P02675 45-491 limits assumed): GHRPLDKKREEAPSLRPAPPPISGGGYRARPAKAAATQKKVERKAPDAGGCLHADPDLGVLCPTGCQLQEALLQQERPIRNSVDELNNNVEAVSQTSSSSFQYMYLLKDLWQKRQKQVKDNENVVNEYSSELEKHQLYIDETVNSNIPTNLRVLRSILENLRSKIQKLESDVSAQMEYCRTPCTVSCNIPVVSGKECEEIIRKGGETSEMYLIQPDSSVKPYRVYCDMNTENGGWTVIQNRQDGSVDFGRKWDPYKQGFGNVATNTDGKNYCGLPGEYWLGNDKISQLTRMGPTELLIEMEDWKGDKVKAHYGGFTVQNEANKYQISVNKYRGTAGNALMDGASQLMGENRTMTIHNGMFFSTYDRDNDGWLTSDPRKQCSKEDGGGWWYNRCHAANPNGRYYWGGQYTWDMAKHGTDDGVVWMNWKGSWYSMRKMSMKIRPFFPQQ
T1 sequence (P02679 27-437 isoform P02679-2 limits assumed): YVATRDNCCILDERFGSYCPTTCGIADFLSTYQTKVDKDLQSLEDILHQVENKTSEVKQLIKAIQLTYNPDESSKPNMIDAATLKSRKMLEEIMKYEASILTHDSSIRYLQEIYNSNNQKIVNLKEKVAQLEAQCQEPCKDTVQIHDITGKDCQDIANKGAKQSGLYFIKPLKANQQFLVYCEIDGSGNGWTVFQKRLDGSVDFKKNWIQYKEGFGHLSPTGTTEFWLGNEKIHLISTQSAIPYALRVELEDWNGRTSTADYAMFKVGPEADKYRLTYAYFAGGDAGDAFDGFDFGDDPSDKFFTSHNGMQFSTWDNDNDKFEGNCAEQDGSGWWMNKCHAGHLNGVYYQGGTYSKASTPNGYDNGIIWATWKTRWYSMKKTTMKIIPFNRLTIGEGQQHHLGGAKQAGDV
Put plainly: In vitro probe depletion: incorporation of rhodamine-labelled probes into human plasma thrombi (OD570 of supernatant). The experiment is classed as binding. Conditions: mean. Here is the method: Human blood was collected from healthy volunteers by venipuncture using a vacutainer tube containing trisodium citrate after signing informed consent (Helsinki declaration). […] At the indicated time points, the OD570 of the supernatant was measured. Mouse blood was collected through a tail vein puncture, and plasma from 6 mice was pooled. Human and mouse thrombi were allowed to form as described above and subsequently incubated with 100 μ L or 16 ng/ μ L ^111 In-A16 or ^111 In-control-A16. After 30, 60 and 180 min, the thrombi were washed twice with 1 mL PBS, and the amount of tracer uptake in the thrombi was calculated using gamma counting (Wallac Wizard, Turku, Finland). Data were expressed as the percentage of tracer uptake in the thrombi to the total amount of tracer added.
LisB-A16 was compared with bi- α 2-AP-CA. Human plasma was allowed to clot for 90 min at 37 °C, after which a 3 μ M probe was added. The decrease in probe left in the solution was measured by colourimetry and represented probe incorporation into the human thrombi (Figure 2A). […]
Figure 2 In vitro probe depletion. […] OD (570 nm) in solution was measured after 1, 2, 3 and 4 h as a measure of probe incorporation in thrombi. […]
OD (570 nm) in soluti on was measured after 1, 2, 3 and 4 hours , as a measure of probe […]

For “Ac-GNQEQVSPLTLLK1-K(LisB)K-NH 2 [LisB-A16, red fluorescent A16 probe conjugated with Lissamine rhodamine-B]”, the “absorption at 570 nm of probe left in solution (probe incorporation into human thrombi)” value (3 μM probe added to human plasma thrombi formed 90 min at 37 °C (14 mM CaCl2, 0.6 nM TF), OD570 of supernatant measured after 1, 2, 3 and 4 h, n = 4, lower = more incorporation) is 53%. For the same substance, the “remaining probe in solution” value (15 μM probe added to human plasma thrombi formed 90 min at 37 °C, OD570 of supernatant after 1, 2, 3 and 4 h, n = 4 (Figure S2)) came out at 61%.
